Earlier results, collected in US8815815B2, “Methods for producing phytoextracts from vegetation waters and olive oil pomaces and compositions obtained thereby” (Phenofarm S.r.l., priority 2011, dated 2014).
In brackets after ≈: the same amount, converted by molar mass.

Tests used:
[1] = system: P-388 murine leukaemia cells
neutrophils = conditions: in vitro
[2] = system: PC12 neuronal cell culture; conditions: 1-methyl-4-phenylpyridine (MPP+) ion

SMILES	ED50 cytotoxic action [1]	chemotactic activity of neutrophils (neutrophils)	protection activity against neurotoxicity induced by MPP+ [2]
C[C@@H]1O[C@@H](O[C@@H]2[C@@H](O)[C@H](OCCc3ccc(O)c(O)c3)O[C@H](COC(=O)/C=C/c3ccc(O)c(O)c3)[C@H]2O)[C@H](O)[C@H](O)[C@H]1O [isoacteoside]	10 µg/mL (≈ 16 µM)		
C[C@@H]1O[C@@H](O[C@@H]2[C@@H](O)[C@H](OCCc3ccc(O)c(O)c3)O[C@H](CO)[C@H]2OC(=O)/C=C/c2ccc(O)c(O)c2)[C@H](O)[C@H](O)[C@H]1O [verbascoside]	26 µg/mL (≈ 41.6 µM)	increasing the chemotactic activity of neutrophils	protection activity against neurotoxicity
